# Assay results as given in patent US20230266302A1, “SYNTHESIS AND USE OF N-BENZYL SULFONAMIDES” (THE UNIVERSITY OF TULSA, priority 2020, published 2023).
# Assays:
# Test in all cases: ATP level assay (CellTiter-Glo), percent of control
# Type in all cases: cell-based
# [1] = tested on: BxPC3 (pancreatic cancer); conditions: two hour incubation; for activity at 100 µM: Homo sapiens, BXPC-3, 2 h, compound alone, control DMSO, read-out: POC (percent of control) BxPC3
# MDA-MB (breast cancer) = conditions: two hour incubation; for activity at 100 µM: 2 h, compound alone, control DMSO, read-out: POC (percent of control) MDA-MB
# HDF (normal cells) = conditions: two hour incubation; for activity at 100 µM: 2 h, compound alone, control DMSO, read-out: POC (percent of control) HDF
# NCI-H196 (lung cancer) = conditions: two hour incubation; for activity at 100 µM: NCI-H196, 2 h, compound alone, control DMSO, read-out: POC (percent of control) NCI-H196
# HeLa (cervical cancer) = conditions: two hour incubation; for activity at 100 µM: Homo sapiens, HeLa, 2 h, compound alone, control DMSO, read-out: POC (percent of control) HeLa
# PC3 (prostate cancer) = conditions: two hour incubation; for activity at 100 µM: 2 h, compound alone, control DMSO, read-out: POC (percent of control) PC3
# SkBr3 (breast cancer) = conditions: two hour incubation; for activity at 100 µM: Homo sapiens, SK-BR-3, 2 h, compound alone, control DMSO, read-out: POC (percent of control) SkBr3
# T47D (breast cancer) = conditions: two hour incubation; for activity at 100 µM: Homo sapiens, T47D, 2 h, compound alone, control DMSO, read-out: POC (percent of control) T47D
# MCF7 (breast cancer) = conditions: two hour incubation; for activity at 100 µM: Homo sapiens, MCF7, 2 h, compound alone, control DMSO, read-out: POC (percent of control) MCF7
# H293 (kidney cancer) = conditions: two hour incubation; for activity at 100 µM: 2 h, compound alone, control DMSO, read-out: POC (percent of control) H293
# [2] = tested on: MCF10A (non-cancerous breast); conditions: two hour incubation; for activity at 100 µM: Homo sapiens, MCF-10A, 2 h, compound alone, control DMSO, read-out: POC (percent of control) MCF10A
# [3] = compound 100 uM + 2DG (about 10-20 mM)
# [4] = compound 100 uM + rotenone (approximately 1.25 μM)
Structure (SMILES),activity at 100 µM [1] [%],"POC (percent of control) BxPC3 [1, 3]","POC (percent of control) BxPC3 [1, 4]",activity at 100 µM (MDA-MB (breast cancer)) [%],POC (percent of control) MDA-MB (MDA-MB (breast cancer); [3]),POC (percent of control) MDA-MB (MDA-MB (breast cancer); [4]),activity at 100 µM (HDF (normal cells)) [%],POC (percent of control) HDF (HDF (normal cells); [3]),POC (percent of control) HDF (HDF (normal cells); [4]),activity at 100 µM (NCI-H196 (lung cancer)) [%],POC (percent of control) NCI-H196 (NCI-H196 (lung cancer); [3]),POC (percent of control) NCI-H196 (NCI-H196 (lung cancer); [4]),activity at 100 µM (HeLa (cervical cancer)) [%],POC (percent of control) HeLa (HeLa (cervical cancer); [3]),POC (percent of control) HeLa (HeLa (cervical cancer); [4]),activity at 100 µM (PC3 (prostate cancer)) [%],POC (percent of control) PC3 (PC3 (prostate cancer); [3]),POC (percent of control) PC3 (PC3 (prostate cancer); [4]),activity at 100 µM (SkBr3 (breast cancer)) [%],POC (percent of control) SkBr3 (SkBr3 (breast cancer); [3]),also measured
"Cc1ccc(S(=O)(=O)NCc2nccs2)cc1 [Compound 19, 4-methyl-N-(1,3-thiazol-2-ylmethyl)benzenesulfonamide]",96.2,98.4% of control,107.2% of control,104,89.5% of control,112% of control,92.5,98.9% of control,87.3% of control,117,107.3% of control,94.3% of control,104,94.8% of control,109.3% of control,108,127.1% of control,98.9% of control,119,105.9% of control,"POC (percent of control) SkBr3 (SkBr3 (breast cancer); [4]): 108.6% of control; activity at 100 µM (T47D (breast cancer)): 91.5%; POC (percent of control) T47D (T47D (breast cancer); [3]): 87.4% of control; POC (percent of control) T47D (T47D (breast cancer); [4]): 86.7% of control; activity at 100 µM (MCF7 (breast cancer)): 134%; POC (percent of control) MCF7 (MCF7 (breast cancer); [3]): 104% of control; POC (percent of control) MCF7 (MCF7 (breast cancer); [4]): 92.1% of control; activity at 100 µM (H293 (kidney cancer)): 82.2%; POC (percent of control) H293 (H293 (kidney cancer); [3]): 87.2% of control; POC (percent of control) H293 (H293 (kidney cancer); [4]): 79.1% of control; activity at 100 µM [2]: 83.9%; POC (percent of control) MCF10A [2, 3]: 95.8% of control; POC (percent of control) MCF10A [2, 4]: 119.8% of control"
"O=S(=O)(NCc1cncnc1)c1ccccc1 [Compound 15, N-(pyrimidin-5-ylmethyl)benzenesulfonamide]",98.8,70.8% of control,88.9% of control,108,91.2% of control,90.8% of control,89.2,100.2% of control,91.1% of control,92.3,115.4% of control,104.5% of control,103,113.9% of control,102.2% of control,109,117.6% of control,106.4% of control,117,123.3% of control,"POC (percent of control) SkBr3 (SkBr3 (breast cancer); [4]): 93% of control; activity at 100 µM (T47D (breast cancer)): 89.6%; POC (percent of control) T47D (T47D (breast cancer); [3]): 82.5% of control; POC (percent of control) T47D (T47D (breast cancer); [4]): 109.4% of control; activity at 100 µM (MCF7 (breast cancer)): 148%; POC (percent of control) MCF7 (MCF7 (breast cancer); [3]): 103.4% of control; POC (percent of control) MCF7 (MCF7 (breast cancer); [4]): 96.4% of control; activity at 100 µM (H293 (kidney cancer)): 99.8%; POC (percent of control) H293 (H293 (kidney cancer); [3]): 74.7% of control; POC (percent of control) H293 (H293 (kidney cancer); [4]): 84.4% of control; activity at 100 µM [2]: 105%; POC (percent of control) MCF10A [2, 3]: 122% of control; POC (percent of control) MCF10A [2, 4]: 98.4% of control"
"CS(=O)(=O)NCc1c[nH]c2ccccc12 [Compound 26, N-(1H-indol-3-ylmethyl)methanesulfonamide]",99.1,86.6% of control,88.8% of control,90.2,87.6% of control,79.2% of control,106,91.1% of control,86.9% of control,220,91.3% of control,80.8% of control,90.4,106.9% of control,96.3% of control,92.3,111.5% of control,89.6% of control,109,95.7% of control,"POC (percent of control) SkBr3 (SkBr3 (breast cancer); [4]): 97.1% of control; activity at 100 µM (T47D (breast cancer)): 93.3%; POC (percent of control) T47D (T47D (breast cancer); [3]): 101% of control; POC (percent of control) T47D (T47D (breast cancer); [4]): 90.8% of control; activity at 100 µM (MCF7 (breast cancer)): 114%; POC (percent of control) MCF7 (MCF7 (breast cancer); [3]): 95.9% of control; POC (percent of control) MCF7 (MCF7 (breast cancer); [4]): 119.8% of control; activity at 100 µM (H293 (kidney cancer)): 110%; POC (percent of control) H293 (H293 (kidney cancer); [3]): 72.9% of control; POC (percent of control) H293 (H293 (kidney cancer); [4]): 72% of control; activity at 100 µM [2]: 106%; POC (percent of control) MCF10A [2, 3]: 99.9% of control; POC (percent of control) MCF10A [2, 4]: 81% of control"
"O=S(=O)(NCc1cncnc1)c1ccc(Cl)cc1 [Compound 14, 4-chloro-N-(pyrimidin-5-ylmethyl)benzenesulfonamide]",93.8,95.4% of control,60.9% of control,105,86% of control,87.5% of control,96.1,96.3% of control,90.9% of control,86.9,107.3% of control,109% of control,98.3,106.4% of control,102.1% of control,111,101.7% of control,101.7% of control,107,96.9% of control,"POC (percent of control) SkBr3 (SkBr3 (breast cancer); [4]): 98.3% of control; activity at 100 µM (T47D (breast cancer)): 86.7%; POC (percent of control) T47D (T47D (breast cancer); [3]): 106.4% of control; POC (percent of control) T47D (T47D (breast cancer); [4]): 114.8% of control; activity at 100 µM (MCF7 (breast cancer)): 126%; POC (percent of control) MCF7 (MCF7 (breast cancer); [3]): 109.8% of control; POC (percent of control) MCF7 (MCF7 (breast cancer); [4]): 94.4% of control; activity at 100 µM (H293 (kidney cancer)): 84.9%; POC (percent of control) H293 (H293 (kidney cancer); [3]): 82.1% of control; POC (percent of control) H293 (H293 (kidney cancer); [4]): 82.4% of control; activity at 100 µM [2]: 103%; POC (percent of control) MCF10A [2, 3]: 119.1% of control; POC (percent of control) MCF10A [2, 4]: 94.3% of control"
"Cc1cccc2[nH]cc(CNS(=O)(=O)c3ccc(Cl)cc3)c12 [Compound 30, 4-chloro-N-[(4-methyl-1H-indol-3-yl)methyl]benzenesulfonamide]",15.8,6.3% of control,45.7% of control,38.6,41.5% of control,48.3% of control,28.2,28.4% of control,66.2% of control,48,18.7% of control,18.4% of control,28.5,17.8% of control,58.4% of control,7.1,10.6% of control,21.7% of control,64.1,41.3% of control,"POC (percent of control) SkBr3 (SkBr3 (breast cancer); [4]): 58.2% of control; activity at 100 µM (T47D (breast cancer)): 16.1%; POC (percent of control) T47D (T47D (breast cancer); [3]): 13.2% of control; POC (percent of control) T47D (T47D (breast cancer); [4]): 28% of control; activity at 100 µM (MCF7 (breast cancer)): 37.4%; POC (percent of control) MCF7 (MCF7 (breast cancer); [3]): 11.3% of control; POC (percent of control) MCF7 (MCF7 (breast cancer); [4]): 36% of control; activity at 100 µM (H293 (kidney cancer)): 14%; POC (percent of control) H293 (H293 (kidney cancer); [3]): 12.8% of control; POC (percent of control) H293 (H293 (kidney cancer); [4]): 9.5% of control; activity at 100 µM [2]: 30%; POC (percent of control) MCF10A [2, 3]: 8.4% of control; POC (percent of control) MCF10A [2, 4]: 34.6% of control"
